In US11925624B2, “Methods of administering anti-fibrotic therapy” (GENENTECH, INC., priority 2016, dated 2024):
“And” between values parts separate entries of the source, which are not always exact repeats. Equal entries are not always repeated. “Also recorded” adds a separate entry of the source. Where two headings read alike, the source gives them in different places.

Assay: Phase 1 single ascending dose (Part A) pharmacokinetics, fasted state
Assay type: in vivo, human
Settings: for % AUCextrap: arithmetic mean; for AUC(0-inf) / AUC(0-t) / Cmax / Vd/F / half-life / Tmax / CL renal: human; for AUC(0-inf) / AUC(0-t) / Cmax / Vd/F / half-life / Tmax: plasma
Method: A Phase 1, randomized, blinded, placebo-controlled safety, tolerability, and pharmacokinetic study of Compound I in 80 healthy adult subjects was conducted.
This study was a randomized, blinded, placebo-controlled, ascending-dose study to evaluate the safety, tolerability, and pharmacokinetic (PK) of single (Part A) and multiple (Part B) doses of Compound I in healthy subjects. In addition, the effects of a standard high-fat breakfast, standard low-fat breakfast, and pretreatment and co-administration of a proton pump inhibitor (PPI) on the tolerability and PK of a single dose of Compound I were investigated in 2 groups in Part A. All subjects received their full dose of Compound I, administered as the appropriate number of either 25 or 200 mg tablets. The high fat breakfast comprised the following: total energy: 895 kcal; total fat: 61 g; total protein: 41 g; total carbohydrate: 46 g. The low fat breakfast comprised the following: total energy: 611 kcal; total fat: 14.7 g; total protein: 20.3 g; total carbohydrate: 106.3 g.
In Part A, 56 subjects were studied in 6 groups (Groups A1 to A6) with each of Groups A1, A2, A3, A5, and A6 composed of 8 subjects (6 received Compound I, 2 received placebo) and Group A4 was composed of 16 subjects (12 received Compound I, 4 received placebo). The first dose group (A1) included a sentinel cohort of 2 subjects (1 subject received Compound I and 1 subject received placebo) dosed 48 hours in advance of the remainder of the group.
All subjects in Groups A1 through A6 participated in Treatment Period 1 and received the fasted treatment regimen. In Treatment Period 1, subjects resided at the Clinical Research Unit (CRU) from Day −1 (the day before dosing) to Day 4 (72 hours post-dose). In Treatment Period 1, all doses were administered on the morning of Day 1, after an overnight fast of at least 8 hours. In Groups A1, A2, A3, and A6, each subject received only a single dose of Compound I (25 mg in Group A1, 75 mg in Group A2, 200 mg in Group A3, and 1600 mg in Group A6) or placebo (per the randomization schedule) during the study.
In Part A, all doses in Treatment Period 1 were administered after an overnight fast of at least 8 hours. For the A4 cohort, in Treatment Periods 2 and 3, doses were administered 30 minutes after starting and approximately 10 minutes after completing a high- or low-fat breakfast. In Treatment Period 4, the dose was administered after an overnight fast and following administration of a PPI (PPI was comprised of 3 doses of rabeprazole 20 mg, starting on Day −2 and with the final dose 2 hours before Compound I administration on Day 1). For Group A5, doses during Treatment Period 2 were administered 30 minutes after starting and approximately 10 minutes after completing a low-fat standard breakfast on the morning of Day 1, and doses during Treatment Period 3 were administered on Day 1 after a low-fat meal and following administration of a PPI for 3 days (given as 3 QD doses, with the final PPI dose at 2 hours prior to study drug administration on Day 1).

[1] = 75 mg vs 25 mg (3-fold increase in dose)
[2] = 800-mg dose level (32.0-fold increase in dose)

With `Cn1cc(-c2cn(-c3ccc(OC(F)(F)F)cc3)c(=O)c3ncn(C)c23)cn1` [Compound I] the “AUC0-t (norm)” value (25 mg single dose (A1)) was 13400 hr*ng/mL/(mg/kg), the “AUC0-∞ (norm)” value (25 mg single dose (A1)) was 13600 hr*ng/mL/(mg/kg) and the Ae0-24 (25 mg single dose (A1)) was 19.2 mg. For the same molecule, the CL/F (25 mg single dose (A1)) was 90.5 mL/min, the “CL/F(norm)” value (25 mg single dose (A1)) was 1.23 (mL/min)/kg and the “Cmax (norm)” value (25 mg single dose (A1)) was 2700 ng/mL/(mg/kg). For the same molecule, the fe0-24 (25 mg single dose (A1)) was 76.9%, the t1/2 (25 mg single dose (A1)) was 3.61 h and the λZ (25 mg single dose (A1)) was 0.192 h⁻¹. For the same molecule, the “% AUCextrap” value (25 mg single dose (A1)) was 1.25%, the “AUC0-t (norm)” value (75 mg single dose (A2)) was 12600 hr*ng/mL/(mg/kg) and the “AUC0-∞ (norm)” value (75 mg single dose (A2)) was 12600 hr*ng/mL/(mg/kg). For the same molecule, the Ae0-24 (75 mg single dose (A2)) was 54.8 mg, the CL/F (75 mg single dose (A2)) was 96.0 mL/min and the “CL/F(norm)” value (75 mg single dose (A2)) was 1.32 (mL/min)/kg. For the same molecule, the “Cmax (norm)” value (75 mg single dose (A2)) was 2180 ng/mL/(mg/kg), the fe0-24 (75 mg single dose (A2)) was 73.0% and the t1/2 (75 mg single dose (A2)) was 5.02 h. For the same molecule, the λZ (75 mg single dose (A2)) was 0.138 h⁻¹, the “% AUCextrap” value (75 mg single dose (A2)) was 0.486% and the “Fold increase in AUC0-t” value [1] was 2.9 fold. The “Fold increase in AUC0-∞” value [1] was 2.8 fold, the “Fold increase in Cmax” value [1] was 2.5 fold and the “AUC0-t (norm)” value (200 mg single dose (A3)) was 12000 hr*ng/mL/(mg/kg). The “AUC0-∞ (norm)” value (200 mg single dose (A3)) was 12100 hr*ng/mL/(mg/kg), the Ae0-24 (200 mg single dose (A3)) was 105 mg and the CL/F (200 mg single dose (A3)) was 102 mL/min. For the same molecule, the “CL/F(norm)” value (200 mg single dose (A3)) was 1.38 (mL/min)/kg, the “Cmax (norm)” value (200 mg single dose (A3)) was 1140 ng/mL/(mg/kg) and the fe0-24 (200 mg single dose (A3)) was 52.5%. The λZ (200 mg single dose (A3)) was 0.0602 h⁻¹, the “% AUCextrap” value (200 mg single dose (A3)) was 0.969% and the “AUC0-t (norm)” value (400 mg single dose (A4)) was 9420 hr*ng/mL/(mg/kg). The “AUC0-∞ (norm)” value (400 mg single dose (A4)) was 9650 hr*ng/mL/(mg/kg), the Ae0-24 (400 mg single dose (A4)) was 133 mg and the CL/F (400 mg single dose (A4)) was 121 mL/min. For the same molecule, the “CL/F(norm)” value (400 mg single dose (A4)) was 1.73 (mL/min)/kg, the “Cmax (norm)” value (400 mg single dose (A4)) was 790 ng/mL/(mg/kg) and the fe0-24 (400 mg single dose (A4)) was 33.3%. The λZ (400 mg single dose (A4)) was 0.0594 h⁻¹, the “% AUCextrap” value (400 mg single dose (A4)) was 2.37% and the “AUC0-t (norm)” value (800 mg single dose (A5)) was 6700 hr*ng/mL/(mg/kg). The “AUC0-∞ (norm)” value (800 mg single dose (A5)) was 7080 hr*ng/mL/(mg/kg), the Ae0-24 (800 mg single dose (A5)) was 172 mg and the CL/F (800 mg single dose (A5)) was 169 mL/min. For the same molecule, the “CL/F(norm)” value (800 mg single dose (A5)) was 2.35 (mL/min)/kg, the “Cmax (norm)” value (800 mg single dose (A5)) was 532 ng/mL/(mg/kg) and the fe0-24 (800 mg single dose (A5)) was 21.5%. For the same molecule, the λZ (800 mg single dose (A5)) was 0.0433 h⁻¹, the “% AUCextrap” value (800 mg single dose (A5)) was 5.17% and the “Increase in AUC and Cmax” value (1600 mg dose compared to 800 mg dose) was “no significant increase”. The “AUC0-t (norm)” value (1600 mg single dose (A6)) was 3090 hr*ng/mL/(mg/kg), the “AUC0-∞ (norm)” value (1600 mg single dose (A6)) was 3740 hr*ng/mL/(mg/kg) and the Ae0-24 (1600 mg single dose (A6)) was 145 mg. For the same molecule, the CL/F (1600 mg single dose (A6)) was 307 mL/min, the “CL/F(norm)” value (1600 mg single dose (A6)) was 4.46 (mL/min)/kg and the “Cmax (norm)” value (1600 mg single dose (A6)) was 235 ng/mL/(mg/kg). For the same molecule, the fe0-24 (1600 mg single dose (A6)) was 9.1% and 9.09%, the λZ (1600 mg single dose (A6)) was 0.0351 h⁻¹ and the “% AUCextrap” value (1600 mg single dose (A6)) was 6.57%. The “Dose proportionality of systemic exposure (Cmax and AUC)” value (200-mg dose and greater) was “less than proportional”, the “Fold increase in AUC0-t” value [2] was 16.4 fold and the “Fold increase in AUC0-∞” value [2] was 17.1 fold. The “Fold increase in Cmax” value [2] was 6.5 fold, the “Dose proportionality of systemic exposure (Cmax and AUC)” value (between 25 and 75 mg) was “dose-proportional; also recorded: consistent with linear PK” and the AUC(0-inf) (oral, 25 mg single dose (A1)) was 4600 ng·h/mL. It also gave an AUC(0-t) (oral, 25 mg single dose (A1)) of 4550 ng·h/mL, a Cmax (oral, 25 mg single dose (A1)) of 913 ng/mL and a Vd/F (oral, 25 mg single dose (A1), read-out: Vz/F) of 28.3 L. The Vd/F (oral, 25 mg single dose (A1), read-out: Vz/F(norm)) was 0.384 L/kg, the half-life (oral, 25 mg, 25 mg single dose (A1)) was 3.6 h and the Tmax (oral, 25 mg, 25 mg single dose (A1), median, read-out: tmax) was 1.5 h. For the same molecule, the AUC(0-inf) (oral, 75 mg single dose (A2)) was 13000 ng·h/mL, the AUC(0-t) (oral, 75 mg single dose (A2)) was 13000 ng·h/mL and the Cmax (oral, 75 mg single dose (A2)) was 2250 ng/mL. It also gave a Vd/F (oral, 75 mg single dose (A2), read-out: Vz/F) of 41.7 L, a Vd/F (oral, 75 mg single dose (A2), read-out: Vz/F(norm)) of 0.574 L/kg and a half-life (oral, 75 mg, 75 mg single dose (A2)) of 5 h. The Tmax (oral, 75 mg, 75 mg single dose (A2), median, read-out: tmax) was 1.25 h, the Tmax (oral, 75 mg, 25 and 75 mg doses, read-out: tmax, latest individual value) was ≤ 2.5 h and the AUC(0-inf) (oral, 200 mg single dose (A3)) was 32600 ng·h/mL. It also gave an AUC(0-t) (oral, 200 mg single dose (A3)) of 32300 ng·h/mL, a Cmax (oral, 200 mg single dose (A3)) of 3060 ng/mL and a Vd/F (oral, 200 mg single dose (A3), read-out: Vz/F) of 102 L. For the same molecule, the Vd/F (oral, 200 mg single dose (A3), read-out: Vz/F(norm)) was 1.37 L/kg, the half-life (oral, 200 mg, 200 mg single dose (A3)) was 10.2 h and the Tmax (oral, 200 mg, 200 mg single dose (A3), median, read-out: tmax) was 1.75 h. The AUC(0-inf) (oral, 400 mg single dose (A4)) was 55100 ng·h/mL, the AUC(0-t) (oral, 400 mg single dose (A4)) was 53800 ng·h/mL and the Cmax (oral, 400 mg single dose (A4)) was 4510 ng/mL. It also gave a Vd/F (oral, 400 mg single dose (A4), read-out: Vz/F) of 122 L, a Vd/F (oral, 400 mg single dose (A4), read-out: Vz/F(norm)) of 1.74 L/kg and a half-life (oral, 400 mg, 400 mg single dose (A4)) of 11.7 h. The Tmax (oral, 400 mg, 400 mg single dose (A4), median, read-out: tmax) was 2.5 h, the AUC(0-inf) (oral, 800 mg single dose (A5)) was 78700 ng·h/mL and the AUC(0-t) (oral, 800 mg single dose (A5)) was 74500 ng·h/mL. It also gave a Cmax (oral, 800 mg single dose (A5)) of 5910 ng/mL, a Vd/F (oral, 800 mg single dose (A5), read-out: Vz/F) of 234 L and a Vd/F (oral, 800 mg single dose (A5), read-out: Vz/F(norm)) of 3.26 L/kg. For the same molecule, the half-life (oral, 800 mg, 800 mg single dose (A5)) was 11.3 h, the Tmax (oral, 800 mg, 800 mg single dose (A5), median, read-out: tmax) was 1.8 h and the AUC(0-inf) (oral, 1600 mg single dose (A6)) was 86900 ng·h/mL. It also gave an AUC(0-t) (oral, 1600 mg single dose (A6)) of 73600 ng·h/mL, a Cmax (oral, 1600 mg single dose (A6)) of 5580 ng/mL and a Vd/F (oral, 1600 mg single dose (A6), read-out: Vz/F) of 525 L. It also gave a Vd/F (oral, 1600 mg single dose (A6), read-out: Vz/F(norm)) of 7.62 L/kg, a half-life (oral, 1600 mg, 1600 mg single dose (A6)) of 19.8 h and a Tmax (oral, 1600 mg, 1600 mg single dose (A6), median, read-out: tmax) of 2 h. The Tmax (oral, higher dose levels (200 to 1600 mg), read-out: tmax, latest individual value) was ≤ 6 h, the Tmax (po, single oral doses 25 to 1600 mg, read-out: Median tmax, range across all doses) was 1.3 to 2.5 h and the CL renal (urine and plasma, oral, 400 mg single dose (A4)) was 49.7 mL/min. It also gave a CL renal (urine and plasma, oral, 800 mg single dose (A5)) of 48.5 mL/min, a CL renal (urine and plasma, oral, 1600 mg single dose (A6)) of 47.6 mL/min and a CL renal (urine, oral, 25 mg single dose (A1)) of 70.5 mL/min. It also gave a CL renal (urine, oral, 75 mg single dose (A2)) of 71.8 mL/min and a CL renal (urine, oral, 200 mg single dose (A3)) of 63.5 mL/min.
